# Measurements from patent publication US20060069132A1, “Azolecarboxamide herbicides” (priority 2004, published 2006).
# Like-named read-outs stand apart in the source and are kept apart here.
# What was measured:
# rice = assay: Test B flooded paddy test; format: in vivo, Oryza sativa; conditions: Oryza sativa, 336 h, 1000 g ai/ha, visual rating, scale 0 to 100 (0 no effect, 100 complete control), 13 to 15 days, read-out: Rice plant response rating
# How it was run: (§1)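 After treating 2-leaf paddy plants or 2–18 cm postemergence plants (1 to 4 leaves) with formulated chemical, researchers kept them in a greenhouse for 13–15 days. Effects were judged visually versus controls: 0 indicates none, 100 total control.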
# velvetleaf = assay: Test B pre-/postemergence herbicide test; format: in vivo, Abutilon theophrasti; conditions: Abutilon theophrasti, 336 h; for pest or weed control at 125 g/ha: 125 g ai/ha; for pest or weed control at 500 g/ha: 500 g ai/ha
# How it was run: (§2)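 Flooded paddy rice and barnyardgrass were treated at the 2-leaf stage; upland plantings received compound either on sown seed or on 1- to 4-leaf seedlings. All were kept 13–15 days in a greenhouse and scored visually, 0–100, relative to untreated plants.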
# corn = assay: Test B pre-/postemergence herbicide test; format: in vivo, Zea mays; conditions: Zea mays; for plant injury at 125 g/ha: 125 g ai/ha
# How it was run: as §2
# giant foxtail = assay: Test B pre-/postemergence herbicide test; format: in vivo, Setaria faberi; conditions: Setaria faberi, 336 h; for pest or weed control at 125 g/ha: 125 g ai/ha; for pest or weed control at 500 g/ha: 500 g ai/ha
# How it was run: as §2
# blackgrass = assay: Test B postemergence herbicide test; format: in vivo, Alopecurus myosuroides; conditions: Alopecurus myosuroides, post-emergence, 336 h, postemergence, visual rating, scale 0 (no effect) to 100 (complete control), read-out: Blackgrass plant response rating
# How it was run: (§3)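 Visual control ratings, 0–100 versus untreated controls, taken after 13 to 15 days in the greenhouse. Blackgrass received a postemergence spray at the 1- to 4-leaf stage (2–18 cm); ducksalad, umbrella sedge and barnyardgrass were flooded-paddy treated at 2 leaves.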
# barnyardgrass [1] = assay: Test B pre-/postemergence herbicide test; format: in vivo, Echinochloa crus-galli; conditions: Echinochloa crus-galli; for pest or weed control at 125 g/ha: 125 g ai/ha; for pest or weed control at 500 g/ha: 500 g ai/ha
# How it was run: (§4)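 Response was scored visually 13 to 15 days after treatment against untreated greenhouse controls, 0 meaning no effect and 100 complete control. Formulations (solvent mixture plus surfactant) went onto soil after planting, onto foliage of 1- to 4-leaf plants, and onto 2-leaf plants in a flooded paddy set including rice and barnyardgrass.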
# wheat = assay: Test B postemergence herbicide test; format: in vivo, Triticum aestivum; conditions: Triticum aestivum, post-emergence, 336 h, postemergence, visual rating, scale 0 (no effect) to 100 (complete control), read-out: Wheat plant response rating
# How it was run: as §1
# ducksalad = assay: Test B flooded paddy test; format: in vivo, Heteranthera limosa; conditions: Heteranthera limosa, 336 h, 1000 g ai/ha, visual rating, scale 0 to 100 (0 no effect, 100 complete control), 13 to 15 days, read-out: Ducksalad plant response rating
# How it was run: as §3
# cocklebur = assay: Test B pre-/postemergence herbicide test; format: in vivo, Xanthium strumarium; conditions: Xanthium strumarium; for pest or weed control at 125 g/ha: 125 g ai/ha; for pest or weed control at 500 g/ha: 500 g ai/ha
# How it was run: as §4
# morningglory = assay: Test B pre-/postemergence herbicide test; format: in vivo, Ipomoea coccinea; conditions: Ipomoea, 336 h; for pest or weed control at 125 g/ha: 125 g ai/ha; for pest or weed control at 500 g/ha: 500 g ai/ha
# How it was run: as §4
# wild oat = assay: Test B postemergence herbicide test; format: in vivo, Avena fatua; conditions: Avena fatua, post-emergence, 336 h, postemergence, visual rating, scale 0 (no effect) to 100 (complete control), read-out: Oat, Wild plant response rating
# How it was run: as §1
# barnyardgrass [2] = assay: Test B flooded paddy test; format: in vivo, Echinochloa crus-galli; conditions: Echinochloa crus-galli, 336 h, 1000 g ai/ha, visual rating, scale 0 to 100 (0 no effect, 100 complete control), 13 to 15 days, read-out: Barnyardgrass plant response rating
# How it was run: as §3
# lambsquarters = assay: Test B pre-/postemergence herbicide test; format: in vivo, Chenopodium album; conditions: Chenopodium album, 336 h; for pest or weed control at 125 g/ha: 125 g ai/ha; for pest or weed control at 500 g/ha: 500 g ai/ha
# How it was run: as §2
# pigweed = assay: Test B pre-/postemergence herbicide test; format: in vivo, Amaranthus retroflexus; conditions: Amaranthus retroflexus, 336 h; for pest or weed control at 125 g/ha: 125 g ai/ha; for pest or weed control at 500 g/ha: 500 g ai/ha
# How it was run: as §2
# [3] = test system: small flower umbrella sedge; assay: Test B flooded paddy test; format: in vivo, Cyperus difformis; conditions: Cyperus difformis, 336 h, 1000 g ai/ha, visual rating, scale 0 to 100 (0 no effect, 100 complete control), 13 to 15 days, read-out: Sedge, Umbrella plant response rating
# How it was run: as §3
# [4] = post-emergence, postemergence, visual rating, scale 0 (no effect) to 100 (complete control), read-out: Velvetleaf plant response rating
# [5] = post-emergence, postemergence, visual rating, scale 0 (no effect) to 100 (complete control), read-out: Foxtail, Giant plant response rating
# [6] = post-emergence, postemergence, visual rating, scale 0 (no effect) to 100 (complete control), read-out: Barnyardgrass plant response rating
# [7] = post-emergence, postemergence, visual rating, scale 0 (no effect) to 100 (complete control), read-out: Cocklebur plant response rating
# [8] = post-emergence, postemergence, visual rating, scale 0 (no effect) to 100 (complete control), read-out: Morningglory plant response rating
# [9] = post-emergence, postemergence, visual rating, scale 0 (no effect) to 100 (complete control), read-out: Lambsquarters plant response rating
# [10] = post-emergence, postemergence, visual rating, scale 0 (no effect) to 100 (complete control), read-out: Pigweed plant response rating
smiles,measurement,setting,value
"CCNC(=O)c1cccc(NC(=O)c2nn(C(C)(C)C)cc2Br)c1 [Compound 221, 4-bromo-1-(1,1-dimethylethyl)-N-[3-[(ethylamino)carbonyl]phenyl]-1H-pyrazole-3-carboxamide]",plant injury at 1000 g/ha,rice,20%
same,pest or weed control at 125 g/ha,velvetleaf; [4],0%
same,pest or weed control at 500 g/ha,velvetleaf; [4],0%
same,pest or weed control at 125 g/ha,"velvetleaf; pre-emergence, 0 = no effect, 100 = complete control, read-out: Velvetleaf plant response rating (0 to 100 scale)",0%
same,pest or weed control at 500 g/ha,"velvetleaf; pre-emergence, visual rating, 0 = no effect, 100 = complete control, read-out: Plant response rating, Velvetleaf",50%
same,plant injury at 125 g/ha,"corn; post-emergence, postemergence, visual rating, scale 0 (no effect) to 100 (complete control), read-out: Corn plant response rating",10%
same,plant injury at 500 g/ha,"corn; post-emergence, postemergence, 500 g ai/ha, visual rating, scale 0 (no effect) to 100 (complete control), read-out: Corn plant response rating",10%
same,plant injury at 125 g/ha,"corn; pre-emergence, 0 = no effect, 100 = complete control, read-out: Corn plant response rating (0 to 100 scale)",0%
same,"Corn plant response rating (crop injury, 0 = no effect, 100 = complete kill) at 500 g/ha","corn; pre-emergence, 500 g ai/ha, visual rating, 0 = no effect, 100 = complete control",0%
same,pest or weed control at 125 g/ha,giant foxtail; [5],10%
same,pest or weed control at 500 g/ha,giant foxtail; [5],10%
same,pest or weed control at 125 g/ha,"giant foxtail; pre-emergence, 0 = no effect, 100 = complete control, read-out: Foxtail, Giant plant response rating (0 to 100 scale)",0%
same,pest or weed control at 500 g/ha,"giant foxtail; pre-emergence, visual rating, 0 = no effect, 100 = complete control, read-out: Plant response rating, Foxtail, Giant",70%
same,pest or weed control at 125 g/ha,blackgrass; 125 g ai/ha,0%
same,pest or weed control at 500 g/ha,blackgrass; 500 g ai/ha,0%
same,pest or weed control at 125 g/ha,barnyardgrass [1]; [6],0%
same,pest or weed control at 500 g/ha,barnyardgrass [1]; [6],10%
same,pest or weed control at 125 g/ha,"barnyardgrass [1]; pre-emergence, 0 = no effect, 100 = complete control, read-out: Barnyardgrass plant response rating (0 to 100 scale)",0%
same,pest or weed control at 500 g/ha,"barnyardgrass [1]; pre-emergence, visual rating, 0 = no effect, 100 = complete control, read-out: Plant response rating, Barnyardgrass",90%
same,plant injury at 125 g/ha,wheat; 125 g ai/ha,0%
same,plant injury at 500 g/ha,wheat; 500 g ai/ha,10%
same,pest or weed control at 1000 g/ha,ducksalad,50%
same,pest or weed control at 125 g/ha,cocklebur; [7],0%
same,pest or weed control at 500 g/ha,cocklebur; [7],20%
same,pest or weed control at 125 g/ha,"cocklebur; pre-emergence, 0 = no effect, 100 = complete control, read-out: Cocklebur plant response rating (0 to 100 scale)",0%
same,pest or weed control at 500 g/ha,"cocklebur; pre-emergence, visual rating, 0 = no effect, 100 = complete control, read-out: Plant response rating, Cocklebur",0%
same,pest or weed control at 125 g/ha,morningglory; [8],0%
same,pest or weed control at 500 g/ha,morningglory; [8],0%
same,pest or weed control at 125 g/ha,"morningglory; pre-emergence, 0 = no effect, 100 = complete control, read-out: Morningglory plant response rating (0 to 100 scale)",0%
same,pest or weed control at 500 g/ha,"morningglory; pre-emergence, visual rating, 0 = no effect, 100 = complete control, read-out: Plant response rating, Morningglory",0%
same,pest or weed control at 125 g/ha,wild oat; 125 g ai/ha,0%
same,pest or weed control at 500 g/ha,wild oat; 500 g ai/ha,10%
same,pest or weed control at 1000 g/ha,barnyardgrass [2],40%
same,pest or weed control at 125 g/ha,lambsquarters; [9],0%
same,pest or weed control at 500 g/ha,lambsquarters; [9],20%
same,pest or weed control at 125 g/ha,"lambsquarters; pre-emergence, 0 = no effect, 100 = complete control, read-out: Lambsquarters plant response rating (0 to 100 scale)",20%
same,pest or weed control at 500 g/ha,"lambsquarters; pre-emergence, visual rating, 0 = no effect, 100 = complete control, read-out: Plant response rating, Lambsquarters",100%
same,pest or weed control at 125 g/ha,pigweed; [10],10%
same,pest or weed control at 500 g/ha,pigweed; [10],20%
same,pest or weed control at 125 g/ha,"pigweed; pre-emergence, 0 = no effect, 100 = complete control, read-out: Pigweed plant response rating (0 to 100 scale)",50%
same,pest or weed control at 500 g/ha,"pigweed; pre-emergence, visual rating, 0 = no effect, 100 = complete control, read-out: Plant response rating, Pigweed",100%
same,pest or weed control at 1000 g/ha,[3],80%
